Results taken from paper PMC6829536 (International Journal of Molecular Sciences, 2019).

Legend:
P56A/P58A CaFADS = target: T1, P56A/P58A CaFADS (Corynebacterium ammoniagenes, UniProt Q59263, P56A/P58A); assay: biochemical; assay type: biochemical
T1 construct: made in house; host or cells: E. coli BL21(DE3)
Protocol: (§1) Reactions were initiated by the addition of ~20 nM of enzyme. After 1 min incubation at 25 °C, the reactions were stopped by boiling the mixtures for 5 min. The composition of flavins in the supernatant was determined using an Alliance HPLC system (Waters, Milford, MA, USA) equipped with a 2707 autosampler and a HSST3 column (4.6 × 150 mm, 3.5 µm, Waters) preceded by a pre-column (4.6 × 20 mm, 3.5 µm, Waters). The chromatography was developed at 1 mL/min with a 6 min isocratic program of methanol 40% (v/v) in 5 mM ammonium acetate (pH 6.0). Detection of flavins was carried out using a 2475 Multi λ fluorescence detector (Waters), excitation wavelength of 470 nm and emission wavelength of 530 nm. […] The flavinic products of the reaction were identified by their retention times and quantified through their corresponding standard curves obtained under the same conditions. Controls containing free flavins in the absence of the enzyme were treated similarly to reaction samples to discard flavin degradation during RFK activity determination. […] In case of inhibition, the experimental data were fitted to a model describing the substrate inhibition of a bi-substrate mechanism. In these situations, errors in apparent Km and kcat (^appKm and ^appkcat) increased with the inhibition constant (Ki) value getting closer to Km^S. Reaction mixtures were evaluated in triplicates, and final results are expressed as the standard error of the fitted value (value ± SE).

L98K CaFADS = target: T2, L98K CaFADS (Corynebacterium ammoniagenes, UniProt Q59263, L98K); assay: biochemical; assay type: biochemical
T2 construct: made in house; host or cells: E. coli BL21(DE3)
Protocol: as §1

P56W CaFADS = target: T3, P56W CaFADS (Corynebacterium ammoniagenes, UniProt Q59263, P56W); assay: biochemical; assay type: biochemical
T3 construct: made in house; host or cells: E. coli BL21(DE3)
Protocol: as §1

L98A CaFADS = target: T4, L98A CaFADS (Corynebacterium ammoniagenes, UniProt Q59263, L98A); assay: biochemical; assay type: biochemical
T4 construct: made in house; host or cells: E. coli BL21(DE3)
Protocol: as §1

P58W CaFADS = target: T5, P58W CaFADS (Corynebacterium ammoniagenes, UniProt Q59263, P58W); assay: biochemical; assay type: biochemical
T5 construct: made in house; host or cells: E. coli BL21(DE3)
Protocol: as §1

L98W CaFADS = target: T6, L98W CaFADS (Corynebacterium ammoniagenes, UniProt Q59263, L98W); assay: biochemical; assay type: biochemical
T6 construct: made in house; host or cells: E. coli BL21(DE3)
Protocol: as §1

WT CaFADS = target: T7, WT CaFADS (Corynebacterium ammoniagenes, UniProt Q59263); conditions: saturating ATP, 20 mM PIPES, 0.8 mM MgCl2, pH 7.0, 25 °C, cited from earlier work
T7 construct: made in house; host or cells: Escherichia coli

CaFADS variants = assay: Qualitative detection of RFK, FMNAT and FADpp activities by TLC; assay type: biochemical, Corynebacterium ammoniagenes; conditions: all variants, 200 nM enzyme, 50 μM flavin, 0.2 mM ATP, 10 mM MgCl2, pH 7.0, 30 min and 2 h
Protocol: RFK and FMNAT activities were qualitatively assayed by the incubation of enzymes with substrates and separation of flavins (substrates and products) from reaction mixtures using TLC on Silica Gel SIL-G-25 plates (20 × 20 cm, thickness 0.25 mm) as previously described. […] Reactions were stopped by boiling the preparations for 5 min. Flavin spots were visualized under UV light.

## Cc1cc2nc3c(=O)[nH]c(=O)nc-3n(C[C@H](O)[C@H](O)[C@H](O)CO)c2cc1C [RF, Riboflavin]
P56A/P58A CaFADS
  Ki: 54 ± 29 µM
P56A/P58A CaFADS; P56A/P58A CaFADS, RF varied, saturating ATP, apparent value, 20 mM PIPES, 0.8 mM MgCl2, pH 7.0, 25 °C
  kcat: 78 ± 12 min⁻¹
L98K CaFADS
  Ki: 41 ± 13 µM
L98K CaFADS; L98K CaFADS, RF varied, saturating ATP, apparent value, 20 mM PIPES, 0.8 mM MgCl2, pH 7.0, 25 °C
  kcat: 248 ± 34 min⁻¹
P56W CaFADS
  Ki: 6.5 ± 1.9 µM
P56W CaFADS; P56W CaFADS vs WT
  decrease of Km^RF relative to WT: up to 30 fold
P56W CaFADS; P56W CaFADS, RF varied, saturating ATP, apparent value, 20 mM PIPES, 0.8 mM MgCl2, pH 7.0, 25 °C
  kcat: 45 ± 5 min⁻¹
L98A CaFADS
  Ki: 32 ± 15 µM
L98A CaFADS; L98A CaFADS, RF varied, saturating ATP, apparent value, 20 mM PIPES, 0.8 mM MgCl2, pH 7.0, 25 °C
  kcat: 138 ± 26 min⁻¹
P58W CaFADS
  Ki: 39 ± 21 µM
P58W CaFADS; P58W CaFADS, RF varied, saturating ATP, apparent value, 20 mM PIPES, 0.8 mM MgCl2, pH 7.0, 25 °C
  kcat: 98 ± 19 min⁻¹
L98W CaFADS
  Ki: 46 ± 20 µM
L98W CaFADS; L98W CaFADS, RF varied, saturating ATP, apparent value, 20 mM PIPES, 0.8 mM MgCl2, pH 7.0, 25 °C
  kcat: 140 ± 21 min⁻¹
WT CaFADS; RF substrate inhibition
  Ki: 4.9 ± 3.9 µM
WT CaFADS; RF varied, apparent value, read-out: Km^RF
  Km: 12 ± 3 µM
WT CaFADS; RF varied, apparent value
  kcat: 408 ± 200 min⁻¹
CaFADS variants
  RFK activity (transformation of RF), qualitative: All variants kept the RFK activity
